The source of these data is patent publication US20240158392A1 (Janssen Biotech, Inc., priority 2021, published 2024).

In the assay the target is SIK2 (Homo sapiens, UniProt Q9H0K1). The assay is described as follows: SIK2 Enzymatic Assay High Version 2 (High ATP). Format: biochemical. As to conditions: enzyme 6 nM, 6 mM ATP and 400 μM HDAC5tide (each 2× final concentration); 30 minutes pre-incubation, 2 hours; ADP-Glo Max luminescence; read-out: SIK2 high ATP IC50 (μM) (Test Example 2). In outline:
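At room temperature, enzyme (6 nM, 2× final) was preincubated with compound for 30 min, then 6 mM ATP and 400 μM HDAC5tide (both 2× final) were added for 2 h. ADP formed was measured by ADP-Glo Max (2 h reagent, 1 h detection) using luminescence.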

Chain of SIK2 (Q9H0K1 whole entry, species assumed): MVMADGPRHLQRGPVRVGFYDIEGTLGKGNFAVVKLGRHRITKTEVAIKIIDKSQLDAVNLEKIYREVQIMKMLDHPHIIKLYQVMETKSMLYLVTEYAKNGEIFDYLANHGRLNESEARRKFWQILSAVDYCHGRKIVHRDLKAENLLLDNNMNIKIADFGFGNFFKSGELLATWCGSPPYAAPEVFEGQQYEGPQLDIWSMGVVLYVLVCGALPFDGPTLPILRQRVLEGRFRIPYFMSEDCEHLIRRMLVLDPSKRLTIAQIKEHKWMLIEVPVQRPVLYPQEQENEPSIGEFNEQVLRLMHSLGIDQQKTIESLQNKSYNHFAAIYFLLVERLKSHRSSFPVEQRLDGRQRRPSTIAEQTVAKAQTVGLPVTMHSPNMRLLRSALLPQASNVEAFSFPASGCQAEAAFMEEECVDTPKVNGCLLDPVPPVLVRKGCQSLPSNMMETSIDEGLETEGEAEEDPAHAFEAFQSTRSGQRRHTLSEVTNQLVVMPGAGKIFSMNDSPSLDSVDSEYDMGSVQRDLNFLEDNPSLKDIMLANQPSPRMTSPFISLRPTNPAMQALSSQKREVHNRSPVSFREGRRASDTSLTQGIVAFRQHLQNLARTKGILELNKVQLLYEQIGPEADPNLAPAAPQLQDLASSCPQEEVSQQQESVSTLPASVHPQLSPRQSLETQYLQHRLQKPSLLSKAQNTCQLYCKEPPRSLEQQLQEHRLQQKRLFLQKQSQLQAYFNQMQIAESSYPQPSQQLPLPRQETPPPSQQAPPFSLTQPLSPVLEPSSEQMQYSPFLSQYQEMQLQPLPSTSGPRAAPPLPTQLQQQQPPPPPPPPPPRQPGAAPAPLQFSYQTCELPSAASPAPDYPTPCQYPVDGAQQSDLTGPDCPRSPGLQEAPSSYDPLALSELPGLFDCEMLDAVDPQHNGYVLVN

Usually IC50 stands for the concentration that gives 50% inhibition. For `COC(=O)c1ccc(Nc2cc3cc(-c4cc(C)ncc4O[C@H]4CC[C@H](O)CC4)ccn3n2)cc1OC` [Example 246, methyl 4-[[5-[5-(4-hydroxycyclohexoxy)-2-methyl-4-pyridyl]pyrazolo[1,5-a]pyridin-2-yl]amino]-2-methoxy-benzoate], the half-maximal inhibitory concentration (IC50) stood at 0.0441 µM.
Take `CCn1nc(Nc2cc3cc(-c4cc(C)ncc4OCC(C)(C)O)ccn3n2)cc(C)c1=O` [Example 247, 2-ethyl-6-[[5-[5-(2-hydroxy-2-methyl-propoxy)-2-methyl-4-pyridyl]pyrazolo[1,5-a]pyridin-2-yl]amino]-4-methyl-pyridazin-3-one]: the IC50 came to 0.00712 µM.
On to `Cc1cc(-c2ccn3nc(NC(=O)C4CC4)cc3c2)c(OC[C@@]23CN[C@@H](CO2)C3)cn1` [Example 248, N-[5-[2-methyl-5-[[(1R,4R)-5-oxa-2-azabicyclo[2.2.1]heptan-4-yl]methoxy]-4-pyridyl]pyrazolo[1,5-a]pyridin-2-yl]cyclopropanecarboxamide], for which the IC50 turned out to be 0.00712 µM.
Turning to `Cc1cc(-c2ccn3nc(NC(=O)C4CC4)cc3c2)c(OC[C@]23C[C@H](CO2)N(C)C3)cn1` [Example 249, N-[5-[2-methyl-5-[[(1R,4R)-2-methyl-5-oxa-2-azabicyclo[2.2.1]heptan-4-yl]methoxy]-4-pyridyl]pyrazolo[1,5-a]pyridin-2-yl]cyclopropanecarboxamide], the IC50 was 0.0237 µM.
With `Cc1cc(-c2ccn3nc(NC(=O)[C@@H]4C[C@H]4C)cc3c2)c(OC[C@]23C[C@H](CO2)N(C)C3)cn1` [Example 250, (1R,2R)-2-methyl-N-[5-[2-methyl-5-[[(1R,4R)-2-methyl-5-oxa-2-azabicyclo[2.2.1]heptan-4-yl]methoxy]-4-pyridyl]pyrazolo[1,5-a]pyridin-2-yl]cyclopropanecarboxamide], the IC50 stood at 0.0217 µM.
With `Cc1cnc(Nc2cc3cc(-c4cc(C)ncc4OC[C@]45CN[C@H](CO4)C5)ccn3n2)cn1` [Example 251, 5-[2-methyl-5-[[(1S,4S)-5-oxa-2-azabicyclo[2.2.1]heptan-4-yl]methoxy]-4-pyridyl]-N-(5-methylpyrazin-2-yl)pyrazolo[1,5-a]pyridin-2-amine] the figure was 0.00284 µM.
In the case of `Cc1cc(Nc2cc3cc(-c4cc(C(F)(F)F)ncc4OC[C@@]45CN[C@@H](CO4)C5)ccn3n2)nc(C)n1` [Example 252, N-(2,6-dimethylpyrimidin-4-yl)-5-[5-[[(1R,4R)-5-oxa-2-azabicyclo[2.2.1]heptan-4-yl]methoxy]-2-(trifluoromethyl)-4-pyridyl]pyrazolo[1,5-a]pyridin-2-amine], the IC50 stood at 0.0284 µM.
In the case of `Cc1cc(-c2ccn3nc(NC(=O)C4CC4)cc3c2)c(OC[C@]23CN[C@H](CO2)C3)cn1` [Example 253, N-[5-[2-methyl-5-[[(1S,4S)-5-oxa-2-azabicyclo[2.2.1]heptan-4-yl]methoxy]-4-pyridyl]pyrazolo[1,5-a]pyridin-2-yl]cyclopropanecarboxamide] it was 0.00479 µM; in that of `Cc1cc(-c2ccn3nc(Nc4ccc(C)nn4)cc3c2)c(OC[C@@]23CN[C@@H](CO2)C3)cn1` [Example 254, 5-[2-methyl-5-[[(1R,4R)-5-oxa-2-azabicyclo[2.2.1]heptan-4-yl]methoxy]-4-pyridyl]-N-(6-methylpyridazin-3-yl)pyrazolo[1,5-a]pyridin-2-amine], 0.00637 µM.
In the case of `Cc1cc(-c2ccn3nc(Nc4ccc(C5CC5)nn4)cc3c2)c(OC[C@@]23CN[C@@H](CO2)C3)cn1` [Example 255, N-(6-cyclopropylpyridazin-3-yl)-5-[2-methyl-5-[[(1R,4R)-5-oxa-2-azabicyclo[2.2.1]heptan-4-yl]methoxy]-4-pyridyl]pyrazolo[1,5-a]pyridin-2-amine] it was 0.00704 µM; in that of `Cc1cc(-c2ccn3nc(Nc4ccc(C)nn4)cc3c2)c(OC[C@]23C[C@H](CO2)N(C)C3)cn1` [Example 256, 5-[2-methyl-5-[[(1R,4R)-2-methyl-5-oxa-2-azabicyclo[2.2.1]heptan-4-yl]methoxy]-4-pyridyl]-N-(6-methylpyridazin-3-yl)pyrazolo[1,5-a]pyridin-2-amine], 0.0198 µM.
Consider `Cc1cnc(Nc2cc3cc(-c4cc(C)ncc4OC[C@@]45CN[C@@H](CO4)C5)ccn3n2)cn1` [Example 257, 5-[2-methyl-5-[[(1R,4R)-5-oxa-2-azabicyclo[2.2.1]heptan-4-yl]methoxy]-4-pyridyl]-N-(5-methylpyrazin-2-yl)pyrazolo[1,5-a]pyridin-2-amine], for which the IC50 amounted to 0.00446 µM.
Turning to `Cc1cc(-c2ccn3nc(Nc4cc(C)nc(C)n4)cc3c2)c(OCC(O)(C(F)(F)F)C(F)(F)F)cn1` [Example 259, 2-[[4-[2-[(2,6-dimethylpyrimidin-4-yl)amino]pyrazolo[1,5-a]pyridin-5-yl]-6-methyl-3-pyridyl]oxymethyl]-1,1,1,3,3,3-hexafluoro-propan-2-ol], the concentration for half-maximal inhibition (IC50) is 0.0153 µM.
With `Cc1cc(-c2ccn3nc(Nc4ccc5nccn5n4)cc3c2)c(OCC(C)(C)O)cn1` [Example 260, 1-[[4-[2-(imidazo[1,2-b]pyridazin-6-ylamino)pyrazolo[1,5-a]pyridin-5-yl]-6-methyl-3-pyridyl]oxy]-2-methyl-propan-2-ol] the figure was 0.0183 µM; with `Cc1cc(-c2ccn3nc(Nc4cc(C)nc(C(C)(C)C)n4)cc3c2)c(OCC(C)(C)O)cn1` [Example 261, 1-[[4-[2-[(2-tert-butyl-6-methyl-pyrimidin-4-yl)amino]pyrazolo[1,5-a]pyridin-5-yl]-6-methyl-3-pyridyl]oxy]-2-methyl-propan-2-ol], 0.0239 µM; with `Cc1cc(-c2ccn3nc(Nc4cc(C)nc(C)n4)cc3c2)c(OCC(C)(C)C#N)cn1` [Example 262, 3-[[4-[2-[(2,6-dimethylpyrimidin-4-yl)amino]pyrazolo[1,5-a]pyridin-5-yl]-6-methyl-3-pyridyl]oxy]-2,2-dimethyl-propanenitrile], 0.00231 µM.
As for `Cc1cc(-c2ccn3nc(Nc4cc(C)c(=O)n(CC5CC5)n4)cc3c2)c(OCC(C)(C)O)cn1` [Example 265, 2-(cyclopropylmethyl)-6-[[5-[5-(2-hydroxy-2-methyl-propoxy)-2-methyl-4-pyridyl]pyrazolo[1,5-a]pyridin-2-yl]amino]-4-methyl-pyridazin-3-one], the IC50 worked out at 0.00366 µM.
Take `Cc1cc(-c2ccn3nc(Nc4cc(C)nc(C)n4)cc3c2)c(O[C@H]2CC[C@H](S(C)(=O)=O)CC2)cn1` [Example 266, N-(2,6-dimethylpyrimidin-4-yl)-5-[2-methyl-5-(4-methylsulfonylcyclohexoxy)-4-pyridyl]pyrazolo[1,5-a]pyridin-2-amine]: the IC50 was 0.00338 µM.
For the molecule `COc1cc(Nc2cc3cc(-c4cc(C)ncc4OCC(C)(C)C#N)ccn3n2)cc(OC)c1C(=O)NC1CC1` [Example 268, 4-[[5-[5-(2-cyano-2-methyl-propoxy)-2-methyl-4-pyridyl]pyrazolo[1,5-a]pyridin-2-yl]amino]-N-cyclopropyl-2,6-dimethoxy-benzamide], the IC50 is 0.00138 µM.
In the case of `Cc1cc(-c2ccn3nc(Nc4cc(C)c(=O)n(C)n4)cc3c2)c(OCC(C)(C)C#N)cn1` [Example 269, 3-[[4-[2-[(1,5-dimethyl-6-oxo-pyridazin-3-yl)amino]pyrazolo[1,5-a]pyridin-5-yl]-6-methyl-3-pyridyl]oxy]-2,2-dimethyl-propanenitrile] it was 0.00153 µM; in that of `COc1ccccc1COc1cnc(C)cc1-c1ccn2nc(Nc3cc(C)nc(C)n3)cc2c1` [Example 271, N-(2,6-dimethylpyrimidin-4-yl)-5-[5-[(2-methoxyphenyl)methoxy]-2-methyl-4-pyridyl]pyrazolo[1,5-a]pyridin-2-amine], 0.0234 µM; in that of `Cc1cc(-c2ccn3nc(Nc4cc(C)nc(C)n4)cc3c2)c(OCc2cccc(O)c2)cn1` [Example 272, 3-[[4-[2-[(2,6-dimethylpyrimidin-4-yl)amino]pyrazolo[1,5-a]pyridin-5-yl]-6-methyl-3-pyridyl]oxymethyl]phenol], 0.00876 µM.
In the case of `CCC1(COc2cnc(C)cc2-c2ccn3nc(Nc4cc(C)nc(C)n4)cc3c2)COC1` [Example 273, N-(2,6-dimethylpyrimidin-4-yl)-5-[5-[(3-ethyloxetan-3-yl)methoxy]-2-methyl-4-pyridyl]pyrazolo[1,5-a]pyridin-2-amine] it was 0.037 µM; in that of `Cc1cc(-c2ccn3nc(Nc4cc(C)nc(C)n4)cc3c2)c(OCC2(CO)COC2)cn1` [Example 274, [3-[[4-[2-[(2,6-dimethylpyrimidin-4-yl)amino]pyrazolo[1,5-a]pyridin-5-yl]-6-methyl-3-pyridyl]oxymethyl]oxetan-3-yl]methanol], 0.0291 µM.
In the case of `Cc1cc(-c2ccn3nc(Nc4cc(C)nc(C)n4)cc3c2)c(OCC2(C#N)COC2)cn1` [Example 275, 3-[[4-[2-[(2,6-dimethylpyrimidin-4-yl)amino]pyrazolo[1,5-a]pyridin-5-yl]-6-methyl-3-pyridyl]oxymethyl]oxetane-3-carbonitrile] it was 0.0313 µM; in that of `Cc1cc(-c2ccn3nc(Nc4cc(C)nc(C)n4)cc3c2)c(O[C@H]2CCNC2)cn1` [Example 276, N-(2,6-dimethylpyrimidin-4-yl)-5-[2-methyl-5-[(3S)-pyrrolidin-3-yl]oxy-4-pyridyl]pyrazolo[1,5-a]pyridin-2-amine], 0.00921 µM; in that of `Cc1cc(-c2ccn3nc(NC(=O)C4CC4)cc3c2)c(O[C@H]2CCNC2)cn1` [Example 277, N-[5-[2-methyl-5-[(3S)-pyrrolidin-3-yl]oxy-4-pyridyl]pyrazolo[1,5-a]pyridin-2-yl]cyclopropanecarboxamide], 0.0139 µM.
Take `Cc1cc(-c2ccn3nc(Nc4cc(C)nc(C)n4)cc3c2)c(O[C@@H]2CNC[C@@H]2F)cn1` [Example 278, N-(2,6-dimethylpyrimidin-4-yl)-5-[5-[(3R,4S)-4-fluoropyrrolidin-3-yl]oxy-2-methyl-4-pyridyl]pyrazolo[1,5-a]pyridin-2-amine]: the IC50 worked out at 0.0025 µM.
